Data published in patent publication US20160113931A1, “Method of treating and/or preventing neurodegenerative diseases” (University of Macau, priority 2014, published 2016).

How the values were obtained:
[1] = system: zebrafish; assay: MPTP-induced dopaminergic neuron loss in zebrafish (TH whole-mount immunostaining); format: in vivo, Danio rerio; details: positive control, MPTP 48 h
Protocol: Zebrafish at 1 dpf were exposed to BHDPC (3, 10, 30 μM) with or without MPTP for 48 h. Then fish were fixed for whole mount immunostaining. The morphology change of dopaminergic neurons in zebrafish brain was indicated by immunostaining with antibody against tyrosine hydroxylase (TH). Statistical analysis of TH density was accessed in each 10 fish/group. […] Zebrafish at 1 dpf were exposed to different concentrations of BHDPC with or without MPTP for 48 h. Then fish were fixed for whole mount immunostaining.
(§1) The AB strain of wild type zebrafish (Danio rerio) was maintained as described in the Zebrafish Handbook. Zebrafish were staged by days post fertilization […]. For breeding, groups of male and female (3:2) adult zebrafish were placed in 10-L plastic aquarium equipped with spawning nets in the evening. In the following morning, eggs were collected from the breeding group tanks. Normally developed fertilized eggs were selected under a stereomicroscope for further studies. The MPTP manipulation was performed with appropriate safety precautions and all MPTP-containing water was bleached.
Whole-mount immunostaining in zebrafish was performed as previously described. 3 dpf Zebrafish larvae were fixed with 4% paraformaldehyde in PBS for 30 min, […] (TH) staining was performed as previously described. Briefly, zebrafish were fixed in 4% paraformaldehyde in PBS for 5 h. Fixed samples were blocked (2% lamb serum and 0.1% BSA in PBST) for 1 h at room temperature. A mouse monoclonal anti-tyrosine hydroxylase (TH) antibody (Millipore, Billerica, MD, USA) was used as the primary antibody and incubated with samples overnight at 4° C. On the next day, samples were washed six times with PBST (each wash lasted 30 min), followed by incubation with Alexa Fluor® 488 goat anti-mouse antibodies. After immunostaining, zebrafish were mounted with 3.5% methylcellulose and photographed. Semi-quantification of the area of TH^+ cells was assessed by an investigator, unaware of the drug treatment, using Image-J software. Results are expressed as percentage of area of TH^+ cells in untreated normal control groups.
In this example, the in vivo animal model was used to determine the neuroprotective effect of BHDPC. Anti-tyrosine hydroxylase (TH) whole mount immunostaining was used to determine dopaminergic neuronal populations in zebrafish larvae (FIG. 15A). TH activity is the key enzyme responsible for dopamine biosynthesis in the CNS. […] The dopamine reuptake inhibitor nomifensine (Nom), which protected against MPTP-induced neurotoxicity in vivo was used as a positive control. The treatment of larvae with 30 μM of nomifensine, a positive control drug attenuated MPTP-induced neurotoxicity, with TH^+ density […] by 30% compared to the MPTP group.
L-deprenyl, which is a substituted phenethylamine used in treatment of early Parkinson's disease, was used as a positive control.

[2] = system: zebrafish; assay: MPTP-induced deficit of locomotion behavior in zebrafish larvae; format: in vivo, Danio rerio; details: 150 μM L-dopa with MPTP, positive control
Protocol: Three dpf zebrafish embryos were co-incubated with 10 μM MPTP and BHDPC at the indicated concentrations for 96 hours, and zebrafish larval co-treated with MPTP and 150 μM L-dopa was used as positive control. After treatment, zebrafish were collected to perform locomotion behavior test using Viewpoint Zebrabox system and total distances travelled in 10 min were calculated.
as §1
In addition, MPTP markedly altered the swimming behavior of the zebrafish as a consequence of DA neuronal injury. […] BHDPC ameliorated MPTP-induced deficit of swimming behavior. At the same condition, MPTP-induced deficit of swimming behavior were rescued by positive controls, levodopa (L-dopa) (FIG. 16).

For `C#CCN(C)[C@H](C)Cc1ccccc1` [L-deprenyl, reference compound], the “TH+ density compared to the MPTP group (FIG. 15B)” value [1] was “significant increase”.
For `N[C@@H](Cc1ccc(O)c(O)c1)C(=O)O` [levodopa, reference compound], the “MPTP-induced deficit of swimming behavior (total distance travelled in 10 min)” value [2] was “rescued”.
For `CN1Cc2c(N)cccc2C(c2ccccc2)C1` (stereo not drawn) [nomifensine, reference compound], the “TH+ density reduced by, compared to the MPTP group” value ([1]; 30 μM nomifensine) was 30%.
